Measured values taken from patent US4916219A, “Oligosaccharide heparin fragments as inhibitors of complement cascade” (University of Iowa Research Foundation, priority 1988, dated 1990).

What was measured:
[1] = system: aPTT (activated thromboplastin time); experiment: Anticoagulant activity by aPTT; type: biochemical; conditions: standard curve using heparin (Mr avg 14,000), 167 units/mg
Protocol: (§1) This example illustrates the anticoagulant activity of each heparin and heparin-oligosaccharide fragment. Anticoagulant activity was determined by aPTT (activated thromboplastin time) (Linhardt et al., J. Biol. Chem. 257: 7310-13, 1982). Antithrombin III-mediated anti-factor IIa and antifactor Xa activity was measured using purified plasma proteins as described in Linhardt et al. and in Table 2. […] Two bovine heparins had 106% and 124% of standard porcine heparin's activity and the low molecular weight heparin had 100% of standard porcine heparin's activity on complement activation.
(§2) The anticoagulant activity of heparin-oligosaccharides and commercial heparins measured by antifactor IIa assays are plotted against their ability to inhibit complement activation in FIG. 5. The porcine heparins, bovine heparins, and low molecular heparins cluster, showing only minor differences in activities.

[2] = system: T1, factor IIa (Homo sapiens); experiment: Antithrombin III mediated anti-factor IIa activity, purified plasma proteins; type: biochemical; conditions: standard curve using heparin (Mr avg 14,000), 167 units/mg
T1 construct: anti-factor IIa; from tissue
Protocol: as §1, §2

factor Xa = experiment: Antithrombin III mediated anti-factor Xa activity, purified plasma proteins; type: biochemical; conditions: standard curve using heparin (Mr avg 14,000), 167 units/mg
Protocol: as §1

[3] = molecular target: T2, alternative-amplification pathway C3 convertase on EAC4b,3b (Homo sapiens, UniProt P00751+P01024); experiment: Inhibition of generation of alternative-amplification pathway C3 convertase (lysis of EAC4b,3b); type: biochemical, sheep erythrocyte
T2 construct: C3bBb(P) formation read by lysis with rat serum-EDTA
Protocol: This example illustrates the activity of heparin and heparin-oligosaccharides to inhibit generation of the alternative-amplification pathway C3 convertase. The method described in Weiler et al., J. Exp. Med. 147: 409-421, 1978; Weiler, Immunopharmacology 6: 245-255, 1983; and Sharath et al., Immunopharmacology 9: 73-83, 1985, was used. Briefly, inhibition was examined in experiments that used EAC4b,3b which were prepared to have high, intermediate, and low amounts of C3 on the cell surface. EAC4b,3b^100, EAC4b,3b^20, and EAC4b,3b^5 were produced using a C3 input of 100 μg, 20 μg, and 5 μg per 10^9 EAC4b,2a cellular intermediates, respectively. Complement assay buffer (DGVB^++) 100 μL, alone was added to tubes used for the reagent blank, no inhibition, and 100% lysis; or complement assay buffer containing a heparin or heparin-oligosaccharide solution was added to the remaining tubes. At time zero, 100 μl of complement assay buffer containing a suspension of 1×10^7 EAC4b,3b, an excess amount of P and D (100 ng P), and an amount of B needed to lyse the noninhibited tubes at an average of 1 hemolytic event per cell (0.03 ng B for EAC4b,3b^100, 0.15 ng B for EAC4b,3b^20, and 0.50 ng B for EAC4b,3b^5) was added to each tube. The tubes used for the reagent blank contained no B. The mixtures were incubated for 30 minutes at 30° C. with shaking. Then, 300 μL of a 1:20 dilution of rat serum in 40 mM EDTA was added to each tube and incubation was continued with shaking for 60 minutes at 37° C. Saline (1.5 mL) was then added to each tube, except the 100% tube which was lysed with 1.5 mL of water in place of the saline. Finally, the contents of the tubes were mixed, centrifuged and the absorbance of the supernatant was measured at 414 nm.
The percent lysis, the average number of hemolytic sites per cell (Z), and the percent inhibition were then calculated. Data are expressed as either percent inhibition or as 100 times the ED50 (the amount of heparin resulting in 50% inhibition) for heparin divided by the ED50 for heparin-oligosaccharide. Concentration of heparin and heparin-oligosaccharides are expressed as micrograms per 1×10^7 cellular intermediates. The volume of the reaction tubes during convertase generation varied between 0.2 mL and 0.3 mL; the number of cellular intermediates was held at 1×10^7 per tube. The amount of lysis (Z) seen in the nonhibited tube was relatively independent of the volume of buffer present in the tube during convertase generation. Similarly, the amount of inhibition of convertase generation was independent of the volume of buffer present in the tube during convertase generation.

T2 sequence (P01024 23-1663): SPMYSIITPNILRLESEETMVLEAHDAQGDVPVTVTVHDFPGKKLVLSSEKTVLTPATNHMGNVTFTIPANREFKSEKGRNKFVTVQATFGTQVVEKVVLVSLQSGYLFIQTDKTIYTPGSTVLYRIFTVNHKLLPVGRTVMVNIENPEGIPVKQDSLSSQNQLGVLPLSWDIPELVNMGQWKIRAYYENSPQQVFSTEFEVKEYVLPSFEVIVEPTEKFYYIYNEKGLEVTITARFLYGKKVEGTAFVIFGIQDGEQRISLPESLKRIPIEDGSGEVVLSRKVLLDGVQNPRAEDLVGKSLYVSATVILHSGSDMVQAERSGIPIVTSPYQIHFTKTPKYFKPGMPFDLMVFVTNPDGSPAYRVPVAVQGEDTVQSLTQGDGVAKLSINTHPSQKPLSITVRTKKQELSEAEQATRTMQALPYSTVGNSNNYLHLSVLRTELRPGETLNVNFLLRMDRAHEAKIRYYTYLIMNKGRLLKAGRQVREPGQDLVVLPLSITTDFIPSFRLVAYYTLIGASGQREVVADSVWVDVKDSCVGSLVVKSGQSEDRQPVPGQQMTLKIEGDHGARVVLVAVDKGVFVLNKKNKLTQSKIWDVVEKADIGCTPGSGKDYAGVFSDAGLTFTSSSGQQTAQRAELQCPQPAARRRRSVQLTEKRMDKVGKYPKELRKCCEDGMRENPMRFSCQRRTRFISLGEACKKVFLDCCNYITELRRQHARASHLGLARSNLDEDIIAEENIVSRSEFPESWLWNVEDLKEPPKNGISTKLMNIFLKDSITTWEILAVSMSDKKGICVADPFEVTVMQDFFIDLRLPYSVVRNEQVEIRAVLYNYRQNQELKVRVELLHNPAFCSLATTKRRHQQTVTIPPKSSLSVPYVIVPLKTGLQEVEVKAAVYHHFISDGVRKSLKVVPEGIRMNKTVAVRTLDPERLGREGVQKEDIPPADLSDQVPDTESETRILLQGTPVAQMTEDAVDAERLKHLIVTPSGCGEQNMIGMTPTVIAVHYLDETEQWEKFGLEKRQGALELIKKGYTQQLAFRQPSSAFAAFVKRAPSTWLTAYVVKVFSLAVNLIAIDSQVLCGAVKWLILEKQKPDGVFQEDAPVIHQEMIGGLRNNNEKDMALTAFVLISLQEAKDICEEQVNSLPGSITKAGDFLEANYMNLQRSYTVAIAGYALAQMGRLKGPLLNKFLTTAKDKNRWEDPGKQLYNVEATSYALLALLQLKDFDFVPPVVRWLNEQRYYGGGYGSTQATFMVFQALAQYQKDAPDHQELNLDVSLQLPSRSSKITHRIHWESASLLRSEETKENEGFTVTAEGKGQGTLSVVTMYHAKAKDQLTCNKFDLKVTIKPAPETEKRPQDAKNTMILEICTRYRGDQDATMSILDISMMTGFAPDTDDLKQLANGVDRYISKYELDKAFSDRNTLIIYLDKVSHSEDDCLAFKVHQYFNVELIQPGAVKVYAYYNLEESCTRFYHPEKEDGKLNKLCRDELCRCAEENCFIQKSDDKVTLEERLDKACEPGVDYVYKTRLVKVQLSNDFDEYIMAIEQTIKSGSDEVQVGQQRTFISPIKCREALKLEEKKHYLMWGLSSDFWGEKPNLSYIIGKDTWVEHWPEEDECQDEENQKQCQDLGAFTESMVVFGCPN
T2 sequence (P00751 26-764): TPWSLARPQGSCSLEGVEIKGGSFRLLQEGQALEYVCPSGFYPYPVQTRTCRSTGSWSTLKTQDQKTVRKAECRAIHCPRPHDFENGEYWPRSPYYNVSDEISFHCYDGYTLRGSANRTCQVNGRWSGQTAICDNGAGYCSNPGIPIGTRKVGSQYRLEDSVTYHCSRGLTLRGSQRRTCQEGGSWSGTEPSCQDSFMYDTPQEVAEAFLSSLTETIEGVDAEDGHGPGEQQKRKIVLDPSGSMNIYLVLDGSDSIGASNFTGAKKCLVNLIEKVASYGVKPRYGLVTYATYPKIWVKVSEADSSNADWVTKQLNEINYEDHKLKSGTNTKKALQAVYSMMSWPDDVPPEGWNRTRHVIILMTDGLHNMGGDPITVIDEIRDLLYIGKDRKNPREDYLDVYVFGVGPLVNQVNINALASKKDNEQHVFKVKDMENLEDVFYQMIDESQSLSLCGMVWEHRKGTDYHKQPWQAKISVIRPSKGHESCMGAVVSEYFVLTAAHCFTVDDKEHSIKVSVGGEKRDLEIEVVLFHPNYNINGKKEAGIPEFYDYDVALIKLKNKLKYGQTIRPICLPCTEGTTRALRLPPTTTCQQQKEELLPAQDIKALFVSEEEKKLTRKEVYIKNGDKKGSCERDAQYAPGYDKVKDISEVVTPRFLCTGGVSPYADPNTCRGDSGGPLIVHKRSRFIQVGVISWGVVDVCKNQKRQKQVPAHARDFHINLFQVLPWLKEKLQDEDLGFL
T2 sequence (P27918 28-469 partner): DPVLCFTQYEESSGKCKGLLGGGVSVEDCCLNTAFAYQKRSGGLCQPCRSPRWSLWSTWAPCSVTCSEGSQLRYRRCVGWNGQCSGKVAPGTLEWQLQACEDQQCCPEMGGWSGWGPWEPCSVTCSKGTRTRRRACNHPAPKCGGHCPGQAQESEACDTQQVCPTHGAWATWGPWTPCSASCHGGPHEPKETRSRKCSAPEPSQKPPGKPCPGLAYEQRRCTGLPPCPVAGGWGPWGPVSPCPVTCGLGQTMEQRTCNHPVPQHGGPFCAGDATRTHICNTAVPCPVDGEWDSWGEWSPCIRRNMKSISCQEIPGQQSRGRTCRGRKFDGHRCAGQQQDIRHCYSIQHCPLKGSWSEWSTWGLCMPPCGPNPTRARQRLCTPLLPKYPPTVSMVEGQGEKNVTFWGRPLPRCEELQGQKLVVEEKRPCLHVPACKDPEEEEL
T2 sequence (P00746 26-253 partner): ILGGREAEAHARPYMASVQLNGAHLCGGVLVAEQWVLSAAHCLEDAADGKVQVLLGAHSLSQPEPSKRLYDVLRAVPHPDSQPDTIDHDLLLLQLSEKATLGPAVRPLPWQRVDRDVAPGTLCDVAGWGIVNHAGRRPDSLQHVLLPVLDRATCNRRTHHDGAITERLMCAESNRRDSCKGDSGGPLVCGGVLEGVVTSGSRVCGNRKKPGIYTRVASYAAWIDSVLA
T1 sequence (P01008 33-464): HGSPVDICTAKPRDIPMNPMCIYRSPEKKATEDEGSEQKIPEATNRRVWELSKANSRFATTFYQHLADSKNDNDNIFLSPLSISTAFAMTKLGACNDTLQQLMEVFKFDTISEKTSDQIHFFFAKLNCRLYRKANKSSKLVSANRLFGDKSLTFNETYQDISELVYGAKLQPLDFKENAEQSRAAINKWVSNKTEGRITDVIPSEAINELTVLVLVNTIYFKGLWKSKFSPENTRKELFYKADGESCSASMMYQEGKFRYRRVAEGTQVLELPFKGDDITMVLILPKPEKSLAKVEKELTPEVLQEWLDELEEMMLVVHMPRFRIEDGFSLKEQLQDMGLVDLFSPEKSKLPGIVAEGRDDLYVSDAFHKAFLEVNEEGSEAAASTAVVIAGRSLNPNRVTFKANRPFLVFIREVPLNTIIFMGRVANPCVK

SMILES	Anticoagulant ACTIVITY aPTT [1]	Anticoagulant ACTIVITY Antithrombin III mediated Anti-factor IIa [2]	Anticoagulant ACTIVITY Antithrombin III mediated Anti-factor Xa (factor Xa)	Complement activation inhibitory activity [3]
CC(=O)NC1C(OC2C(C(=O)O)OC(OC3C(COS(=O)(=O)O)OC(O)C(NS(=O)(=O)O)C3OS(=O)(=O)O)C(O)C2O)OC(COS(=O)(=O)O)C(OC2OC(C(=O)O)C(OC3OC(COS(=O)(=O)O)C(OC4OC(C(=O)O)=CC(O)C4OS(=O)(=O)O)C(O)C3NS(=O)(=O)O)C(O)C2O)C1O [6C, ΔUAp2S(1→4)-α-D-GlcNp2S6S(1→4)-α-L-IdoAp(1→4)-α-D-GlcNAcp6S-(1→4)-β-D-GlcAp( 1→4)-α-D-GlcNp2S3S6S]	26 units/μmole	11 units/μmole	26 units/μmole	low activity
O=C(O)C1=C[C@H](O)[C@@H](OS(=O)(=O)O)[C@H](O[C@H]2[C@H](O)[C@@H](NS(=O)(=O)O)[C@@H](O[C@H]3[C@H](O)[C@@H](OS(=O)(=O)O)[C@H](O[C@H]4[C@H](O)[C@@H](NS(=O)(=O)O)C(O)O[C@@H]4COS(=O)(=O)O)O[C@H]3C(=O)O)O[C@@H]2COS(=O)(=O)O)O1 (stereo partly drawn) [4C, ΔUAp2S(1→4)-α-D-GlcNp2S6S(1→4)-α-L-IdoAp2S(1→4)-α-D-GlcNp2S6S]	2 units/μmole	< 2 units/μmole	3 units/μmole	low activity
O=C(O)C1=C[C@H](O)[C@@H](OS(=O)(=O)O)[C@H](O[C@H]2[C@H](O)[C@@H](NS(=O)(=O)O)C(O)O[C@@H]2COS(=O)(=O)O)O1 (stereo partly drawn) [compound 2, ΔUAp2S(1→4)-α-D-GlcNp2S6S]	< 1 units/μmole	< 1 units/μmole	< 0.1 units/μmole	low activity
O=C(O)C1=C[C@H](O)[C@@H](OS(=O)(=O)O)[C@H](O[C@H]2[C@H](O)[C@@H](NS(=O)(=O)O)[C@@H](O[C@H]3[C@H](O)[C@@H](OS(=O)(=O)O)[C@H](O[C@H]4[C@H](O)[C@@H](NS(=O)(=O)O)C(O)O[C@@H]4COS(=O)(=O)O)O[C@H]3C(=O)O)O[C@@H]2CO)O1 (stereo partly drawn) [4A, ΔUAp2S(1→4)-α-D-GlcNp2S(1→4)-α-L-IdoAp2S-α-D-GlcNp2S6S]	2 units/μmole	< 1 units/μmole	< 0.1 units/μmole	low activity
O=C(O)C1=C[C@H](O)[C@@H](OS(=O)(=O)O)[C@H](O[C@H]2[C@H](O)[C@@H](NS(=O)(=O)O)[C@@H](O[C@H]3[C@H](O)[C@@H](O)[C@H](O[C@H]4[C@H](O)[C@@H](NS(=O)(=O)O)C(O)O[C@@H]4COS(=O)(=O)O)O[C@@H]3C(=O)O)O[C@@H]2COS(=O)(=O)O)O1 (stereo partly drawn) [4B, ΔUAp2S(1→4)-α-D-GlcNp2S6S(1→4)-β-D-GlcAp(1→4)-α-D-GlcNp2S6S]	2 units/μmole	< 2 units/μmole	0.1 units/μmole	low activity
O=C(O)C1=CC(O)C(OS(=O)(=O)O)C(OC2C(COS(=O)(=O)O)OC(OC3C(C(=O)O)OC(OC4C(COS(=O)(=O)O)OC(OC5C(C(=O)O)OC(OC6C(COS(=O)(=O)O)OC(O)C(NS(=O)(=O)O)C6O)C(OS(=O)(=O)O)C5O)C(NS(=O)(=O)O)C4O)C(OS(=O)(=O)O)C3O)C(NS(=O)(=O)O)C2O)O1 (centres unmarked) [6D]	11 units/μmole	< 2 units/μmole	4 units/μmole	
O=C(O)C1=CC(O)C(OS(=O)(=O)O)C(OC2C(COS(=O)(=O)O)OC(OC3C(C(=O)O)OC(OC4C(COS(=O)(=O)O)OC(OC5C(C(=O)O)OC(OC6C(COS(=O)(=O)O)OC(OC7C(C(=O)O)OC(OC8C(COS(=O)(=O)O)OC(O)C(NS(=O)(=O)O)C8O)C(OS(=O)(=O)O)C7O)C(NS(=O)(=O)O)C6O)C(OS(=O)(=O)O)C5O)C(NS(=O)(=O)O)C4O)C(OS(=O)(=O)O)C3O)C(NS(=O)(=O)O)C2O)O1 (centres unmarked) [8D]	22 units/μmole	< 3 units/μmole	32 units/μmole	
O=C(O)C1=CC(O)C(OS(=O)(=O)O)C(OC2C(COS(=O)(=O)O)OC(OC3C(C(=O)O)OC(OC4C(COS(=O)(=O)O)OC(OC5C(C(=O)O)OC(OC6C(COS(=O)(=O)O)OC(OC7C(C(=O)O)OC(OC8C(COS(=O)(=O)O)OC(OC9C(C(=O)O)OC(OC%10C(COS(=O)(=O)O)OC(O)C(NS(=O)(=O)O)C%10O)C(OS(=O)(=O)O)C9O)C(NS(=O)(=O)O)C8O)C(OS(=O)(=O)O)C7O)C(NS(=O)(=O)O)C6O)C(OS(=O)(=O)O)C5O)C(NS(=O)(=O)O)C4O)C(OS(=O)(=O)O)C3O)C(NS(=O)(=O)O)C2O)O1 (centres unmarked) [10D]	54 units/μmole	< 3 units/μmole	136 units/μmole	
